The test system of test [1] is NF-κB. The test can be described thus: NF-κB DNA binding activity in nuclear extracts (TransAM NF-κB p65 kit). The test is classed as cell-based, human. The settings on record: senescent cells; 500 nM corticosterone or 100 nM cortisol. How it is done:
(§1) Nuclear extracts were prepared using the nuclear extract kit (Active Motif), and NF-κB DNA binding was determined using the TransAM NF-κB p65 kit (Active Motif). For transactivation assays, cells infected with the NF-κB reporter-luciferase lentivirus were lysed in buffer (Promega), and luciferase activity was normalized to cell number, as described (Freund et al., 2011, EMBO J. 30:1536-1548).

The test system of test [2] is NF-κB. The test can be described thus: NF-κB reporter-luciferase transactivation assay. The settings on record: senescent cells; 500 nM corticosterone or 100 nM cortisol. The test is classed as cell-based, human. How it is done:
as §1

A further test concerns IL-6. The test can be described thus: Initial drug screen (Prestwick Chemical Library), IL-6 ELISA of medium. The class given is cell-based, human. The note with it: 2.5 μM, 48 hours, HCA2 fibroblasts, 0.2% serum. How it is done:
The initial drug screen was performed in a 96-well format using automated liquid handling with a Biomek FX (Beckman Coulter, CA). Senescent cells were plated 24 hours after X-irradiation at 7,500 cells per well in 96-well plates. Six days after plating the senescent cells, the pre-senescent cells were plated at 7,500 cells per well in 96-well plates. Twenty-four hours after pre-senescent plating, both pre-senescent and senescent cells were washed and incubated in low (0.2%) serum for 48 hours to arrest cell proliferation of the pre-senescent cells. […] Forty-eight hours after compound addition, the medium in each well was removed and frozen for assay by ELISA to quantitate the levels of IL-6. The cells, which remained in the wells after the medium was removed, were lysed and ATP levels were measured (ATPlite 1-step assay, Perkin Elmer, MA) to exclude compounds that lowered IL-6 through toxicity (cell death). Experimental wells in each plate were normalized to plate mean or same-plate DMSO controls for the ELISA and ATP assays, respectively.
To identify small molecules that may be potential SASP modulators, a screening strategy that entailed administering compounds to parallel 96-well plates containing human fibroblasts (strain HCA2) that were either quiescent or senescent was developed. […] After 48 hours, the medium from each well was removed, and the cells were lysed. […] Cell lysates were assayed for ATP as a surrogate for cell number.

The subject of a further test is SASP factor mRNA. Kind of test: Real-time quantitative PCR of transcripts in HCA2 cells (normalized to tubulin). The test is classed as cell-based, human. The settings on record: 500 nM corticosterone or 100 nM cortisol; for IL-6, IL-8, MMP-3 mRNA levels: senescent X-irradiated HCA2 cells. The text has this:
Cells (7,500/well) in 96-well plates were lysed and reverse transcribed using the Cells-To-Ct kit (Ambion).

For test [3], the target named is T1, mineralocorticoid receptor (Homo sapiens, UniProt P08235).
T1 sequence (P08235 1-984): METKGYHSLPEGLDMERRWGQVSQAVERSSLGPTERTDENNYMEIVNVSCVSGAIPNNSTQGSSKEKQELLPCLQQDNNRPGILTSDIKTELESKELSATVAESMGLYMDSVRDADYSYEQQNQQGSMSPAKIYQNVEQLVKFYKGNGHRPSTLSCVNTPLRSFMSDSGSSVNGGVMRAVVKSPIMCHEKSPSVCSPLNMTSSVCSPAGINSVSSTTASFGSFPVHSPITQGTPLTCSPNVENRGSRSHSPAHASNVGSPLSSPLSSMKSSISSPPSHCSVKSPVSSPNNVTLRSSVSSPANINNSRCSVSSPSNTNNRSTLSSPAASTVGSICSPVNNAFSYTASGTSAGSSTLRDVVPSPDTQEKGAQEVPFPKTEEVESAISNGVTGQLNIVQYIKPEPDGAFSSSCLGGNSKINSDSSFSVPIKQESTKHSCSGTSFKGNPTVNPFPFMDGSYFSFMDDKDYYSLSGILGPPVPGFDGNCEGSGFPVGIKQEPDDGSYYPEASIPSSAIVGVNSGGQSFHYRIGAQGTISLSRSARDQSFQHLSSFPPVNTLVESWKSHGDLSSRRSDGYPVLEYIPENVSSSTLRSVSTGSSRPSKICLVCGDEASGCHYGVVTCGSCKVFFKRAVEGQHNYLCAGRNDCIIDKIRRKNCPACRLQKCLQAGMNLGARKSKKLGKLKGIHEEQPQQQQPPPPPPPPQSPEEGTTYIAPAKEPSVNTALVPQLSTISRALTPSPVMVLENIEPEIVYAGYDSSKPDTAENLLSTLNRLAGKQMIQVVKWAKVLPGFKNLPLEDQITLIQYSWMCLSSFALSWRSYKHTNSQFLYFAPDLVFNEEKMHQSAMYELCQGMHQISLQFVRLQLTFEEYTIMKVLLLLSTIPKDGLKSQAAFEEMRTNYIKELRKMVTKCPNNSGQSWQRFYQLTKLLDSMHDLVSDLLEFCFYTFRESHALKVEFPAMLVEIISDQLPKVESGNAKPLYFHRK
Kind of test: Immunostaining for mineralocorticoid receptor localization in HCA2 cells. The note with it: 500 nM corticosterone or 100 nM cortisol, 1 or 7 days.

The test system of another test is IL-1α. The test can be described thus: Immunostaining for IL-1α in HCA2 cells. The class given is cell-based, human. The settings on record: senescent cells 7 days after irradiation; 500 nM corticosterone or 100 nM cortisol. As for the experimental part:
(FIG. 14B) mRNA extracted from cells described in (FIG. 14A) was used to quantify transcripts for IL-6 (normalized to tubulin). (FIG. 14C) Pre and Sen (XRA) cells, prepared as described in (FIG. 14A), were immunostained for IL-1α. Sen (XRA) cells were immunostained 7 days after irradiation.
Cells were cultured in 8-well chamber slides, fixed in 4% formaldehyde (Sigma) for 10 min at 4° C. and permeabilized in PBS-0.5% Triton for 10 min in 4° C.

Test [4] deals with IL-1α/IL-1 receptor (IL-1R) signaling. The test can be described thus: Western blotting of HCA2 lysates for IRAK1, IκBα, RelA. The settings on record: senescent cells; 500 nM corticosterone or 100 nM cortisol. The class given is cell-based, human. How it is done:
Cells were lysed in RIPA buffer. Lysates were sonicated (10 sec), followed by centrifugation. Samples were incubated at 70° C. for 10 min, loaded on 4-15% gradient tris-glycine SDS-polyacrylamide gels (Invitrogen) and separated by electrophoresis. Proteins were transferred to PVDF membranes, blocked in TBST 5% milk for 1 hour at room temperature, and probed overnight at 4° C. with primary antibodies in blocking buffer. Membranes were washed in TBST, and incubated with horseradish peroxidase-conjugated secondary antibodies for 1 hour at room temperature. Blots were developed using Western detection substrate (GE Healthcare).
Primary antibodies and dilutions were: anti-GR (SC-8992, Santa Cruz; 1:500), anti-actin (ab6276, Abcam; 1:50000), anti-MCR (SC-11412, Santa Cruz; 1:500), anti-IRAK1 (SC-5288, Santa Cruz; 1:500), anti-IκBα (#9247, Cell Signaling; 1:500), anti-RelA (SC-109, Santa Cruz; 1:500), and anti-53BP1 (A300-272A, Bethyl; 1:500).

Each structure is given as a SMILES string.

Two molecules from patent US9884065B2, “Inhibiting activity of senescent cells using a glucocorticoid” (Buck Institute for Research on Aging, priority 2011, dated 2018) can be followed below.

As to `C[C@]12C[C@H](O)[C@H]3[C@@H](CCC4=CC(=O)CC[C@@]43C)[C@@H]1CC[C@@H]2C(=O)CO` [corticosterone], in the test with NF-κB [1], the “NF-κB DNA binding” value is given as “significantly decreased”. The NF-κB transactivation activity result in the test with NF-κB [2] is reported as “significantly decreased”. In the test on IL-6, the “IL-6 secretion (ELISA)” value is reported as “suppressed IL-6 secretion”. In the test with SASP factor mRNA, the “GR mRNA levels” value is listed as “unaffected by glucocorticoid addition”; the “IκBα mRNA levels” value is on record as “no effect on IκBα mRNA levels”; the “IL-6, IL-8, MMP-3 mRNA levels” value is given as “strongly reduced”. The mineralocorticoid receptor localization result in test [3] is on record as “remained cytoplasmic”. Also, the “expression of IL-1α protein (nuclear staining)” value with IL-1α is given as “suppressed expression of IL-1α protein”. Moreover, the “IRAK1 and IκBα protein abundance” value in test [4] was “restored IRAK1 and IκBα proteins to near-presenescent levels”.

As to `C[C@]12CCC(=O)C=C1CC[C@@H]1[C@@H]2[C@@H](O)C[C@@]2(C)[C@H]1CC[C@]2(O)C(=O)CO` [cortisol], the “NF-κB DNA binding” value with NF-κB [1] was “significantly decreased”. Moreover, the NF-κB transactivation activity result with NF-κB [2] is listed as “significantly decreased”. In addition, the “IL-6 secretion (ELISA)” value with IL-6 is recorded as “suppressed IL-6 secretion”. In the test with SASP factor mRNA, the “GR mRNA levels” value is “unaffected by glucocorticoid addition”; the “IκBα mRNA levels” value is recorded as “no effect on IκBα mRNA levels”; the “IL-6, IL-8, MMP-3 mRNA levels” value is listed as “strongly reduced”. In addition, the mineralocorticoid receptor localization result in test [3] is “remained cytoplasmic”. Moreover, the “expression of IL-1α protein (nuclear staining)” value in the test on IL-1α is listed as “suppressed expression of IL-1α protein”. For the same molecule, in test [4], the “IRAK1 and IκBα protein abundance” value was “restored IRAK1 and IκBα proteins to near-presenescent levels”.
